Test results as given in patent publication US20120122085A1, “RECQL4/RECQL4 VARIANT-P53 COMPLEX FOR ALTERED MITOCHONDRIAL FUNCTION IN ROTHMUND-THOMSON SYNDROME” (NATIONAL INSTUTUTE OF IMMUNOLOGY, priority 2009, published 2012).
Entries after “also recorded” stand apart in the source; their conditions may differ.

Tested on: RTS patient cells
Assay: Intracellular ROS in RTS cells measured by oxidation of CM-H2DCFDA after DNA damage
Format: cell-based, human
Conditions: post exposure to mitomycin C, FIG. 10E
Source text: By transmission electron microscopy (TEM) we observed that the mitochondrial cristae were distorted and the intercristal space expanded in all the RTS fibroblasts grown under asynchronous conditions (FIG. 10A). The extent of the cristae space is known to affect the overall chemiosmotic function in the cell (Mannella, 2006). […] Apart from ATP, mitochondria also produce the reactive oxygen species (ROS). Spontaneous ROS levels are usually low in normal cells as elevation of ROS levels can result in significant damage to cell structure (Schumacker, 2006). Indeed the level of ROS in asynchronous NHF was low as determined by the oxidation of 5-(and-6)-chloromethyl-2′,7′-dichlorodihydrofluorescein diacetate, acetyl ester (CM-H2DCFDA). […] Mitochondrial mass was determined by usage of a fluorescent dye Mitotracker Red 580 (200 nM, Invitrogen). […] The cells were subsequently washed, fixed and then analyzed in a Zeiss 510 Meta system with a 40×/0.95 Con objective. The fluorescence was captured initially for NHF and the acquisition parameters were kept unchanged for the capture of the fluorescence for the RTS cells. […] The activity was measured at 412 nm at 30° C. using 10 μg for each sample. Activity was expressed as nmole/min/mg of protein. Intracellular ROS in RTS cells was measured by the oxidation of CM-H2DCFDA (4 μM, Invitrogen). […]

SMILES: O=C1O[C@H]([C@@H](O)CO)C(O)=C1O [ascorbic acid]
- effect on abnormally high ROS levels in RTS cells after DNA damage: decreases the load of reactive oxygen species; also recorded: reversed this effect
